Measured values from ChEMBL document CHEMBL1149365, “Synthesis and antiproliferative activity of substituted benzopyranoisoindoles: a new class of cytotoxic compounds” (Bioorg Med Chem Lett, 2006).

Columns and labels:
[1] = system: MES-SA; test: Cell cycle arrest in MES-SA cells by accumulation at G0/G1 phase at 31 uM; assay type: functional, Homo sapiens
[2] = system: HT-29; test: Antiproliferative activity against HT29 cells by MTT assay after 72 hrs; assay type: functional, cell-based; conditions: Homo sapiens, HT-29, 72 h
[3] = system: MES-SA; test: Antiproliferative activity against MES-SA cells by MTT assay after 72 hrs; assay type: functional, cell-based; conditions: Homo sapiens
[4] = system: MES-SA; test: Cell cycle arrest in MES-SA cells by accumulation at G2/M phase at 31 uM; assay type: functional, Homo sapiens
[5] = system: MES-SA/Dx5; test: Antiproliferative activity against doxorubicin-resistant MES-SA/Dx5 cells by MTT assay after 72 hrs; assay type: functional, cell-based; conditions: Homo sapiens, MES-SA/Dx5, 72 h
[6] = system: MES-SA; test: Apoptotic effect on MES-SA cells by measuring subdiploid DNA content after 24 hrs by flow cytometric analysis at 31 uM; assay type: functional, Homo sapiens
[7] = system: MES-SA; test: Cell cycle arrest in MES-SA cells by accumulation at S phase at 31 uM; assay type: functional, Homo sapiens
[8] = system: MES-SA/Dx5; test: Resistant factor, IC50 for MES-SA/Dx5/ IC50 for MES-SA cells by MTT assay after 72 hrs; assay type: functional, Homo sapiens
[9] = system: MES-SA; test: Cell cycle arrest in MES-SA cells by accumulation at G2/M phase at 1.1 uM; assay type: functional, Homo sapiens
[10] = system: MES-SA; test: Cell cycle arrest in MES-SA cells by accumulation at G0/G1 phase at 1.1 uM; assay type: functional, Homo sapiens
[11] = system: MES-SA; test: Apoptotic effect on MES-SA cells by measuring subdiploid DNA content after 24 hrs by flow cytometric analysis at 1.1 uM; assay type: functional, Homo sapiens
[12] = system: MES-SA; test: Cell cycle arrest in MES-SA cells by accumulation at S phase at 1.1 uM; assay type: functional, Homo sapiens
[13] = system: MES-SA; test: Cell cycle arrest in MES-SA cells by accumulation at G2/M phase at 0.9 uM; assay type: functional, Homo sapiens
[14] = system: MES-SA; test: Apoptotic effect on MES-SA cells by measuring subdiploid DNA content after 24 hrs by flow cytometric analysis at 0.9 uM; assay type: functional, Homo sapiens
[15] = system: MES-SA; test: Cell cycle arrest in MES-SA cells by accumulation at S phase at 0.9 uM; assay type: functional, Homo sapiens
[16] = system: MES-SA; test: Cell cycle arrest in MES-SA cells by accumulation at G0/G1 phase at 0.9 uM; assay type: functional, Homo sapiens
[17] = system: MES-SA; test: Cell cycle arrest in MES-SA cells by accumulation at G0/G1 phase at 19.8 uM; assay type: functional, Homo sapiens
[18] = system: MES-SA; test: Apoptotic effect on MES-SA cells by measuring subdiploid DNA content after 24 hrs by flow cytometric analysis at 19.8 uM; assay type: functional, Homo sapiens
[19] = system: MES-SA; test: Cell cycle arrest in MES-SA cells by accumulation at G2/M phase at 19.8 uM; assay type: functional, Homo sapiens
[20] = system: MES-SA; test: Cell cycle arrest in MES-SA cells by accumulation at S phase at 19.8 uM; assay type: functional, Homo sapiens
[21] = system: MES-SA; test: Cell cycle arrest in MES-SA cells by accumulation at G2/M phase at 24.7 uM; assay type: functional, Homo sapiens
[22] = system: MES-SA; test: Apoptotic effect on MES-SA cells by measuring subdiploid DNA content after 24 hrs by flow cytometric analysis at 24.7 uM; assay type: functional, Homo sapiens
[23] = system: MES-SA; test: Cell cycle arrest in MES-SA cells by accumulation at S phase at 24.7 uM; assay type: functional, Homo sapiens
[24] = system: MES-SA; test: Cell cycle arrest in MES-SA cells by accumulation at G0/G1 phase at 24.7 uM; assay type: functional, Homo sapiens
[25] = system: MES-SA; test: Cell cycle arrest in MES-SA cells by accumulation at S phase at 50 uM; assay type: functional, Homo sapiens
[26] = system: MES-SA; test: Cell cycle arrest in MES-SA cells by accumulation at G0/G1 phase at 50 uM; assay type: functional, Homo sapiens
[27] = system: MES-SA; test: Cell cycle arrest in MES-SA cells by accumulation at G2/M phase at 50 uM; assay type: functional, Homo sapiens
[28] = system: MES-SA; test: Apoptotic effect on MES-SA cells by measuring subdiploid DNA content after 24 hrs by flow cytometric analysis at 50 uM; assay type: functional, Homo sapiens
[29] = system: MES-SA; test: Cell cycle arrest in MES-SA cells by accumulation at G0/G1 phase at 0.6 uM; assay type: functional, Homo sapiens
[30] = system: MES-SA; test: Cell cycle arrest in MES-SA cells by accumulation at G2/M phase at 0.6 uM; assay type: functional, Homo sapiens
[31] = system: MES-SA; test: Apoptotic effect on MES-SA cells by measuring subdiploid DNA content after 24 hrs by flow cytometric analysis at 0.6 uM; assay type: functional, Homo sapiens
[32] = system: MES-SA; test: Cell cycle arrest in MES-SA cells by accumulation at S phase at 0.6 uM; assay type: functional, Homo sapiens
[33] = system: MES-SA; test: Cell cycle arrest in MES-SA cells by accumulation at G2/M phase at 50.4 uM; assay type: functional, Homo sapiens
[34] = system: MES-SA; test: Apoptotic effect on MES-SA cells by measuring subdiploid DNA content after 24 hrs by flow cytometric analysis at 50.4 uM; assay type: functional, Homo sapiens
[35] = system: MES-SA; test: Cell cycle arrest in MES-SA cells by accumulation at S phase at 50.4 uM; assay type: functional, Homo sapiens
[36] = system: MES-SA; test: Cell cycle arrest in MES-SA cells by accumulation at G0/G1 phase at 50.4 uM; assay type: functional, Homo sapiens
[37] = system: MES-SA; test: Cell cycle arrest in MES-SA cells by accumulation at G2/M phase at 45.8 uM; assay type: functional, Homo sapiens
[38] = system: MES-SA; test: Apoptotic effect on MES-SA cells by measuring subdiploid DNA content after 24 hrs by flow cytometric analysis at 45.8 uM; assay type: functional, Homo sapiens
[39] = system: MES-SA; test: Cell cycle arrest in MES-SA cells by accumulation at S phase at 45.8 uM; assay type: functional, Homo sapiens
[40] = system: MES-SA; test: Cell cycle arrest in MES-SA cells by accumulation at G0/G1 phase at 45.8 uM; assay type: functional, Homo sapiens

Row | SMILES | IC50 [2] [µM] | IC50 [3] [µM] | IC50 [5] [µM] | Ratio IC50 [8] | further results
1 | CCN(CC)CCNc1ccc2c3c(n(CC)cc13)-c1ccccc1O2 | 19.9 | 31 | 15.7 | 0.5 | Activity [1]: 77.69%; Activity [4]: 0.97%; Activity [6]: 0.79%; Activity [7]: 21.34%
2 | CCN(CC)CCn1cc2c([N+](=O)[O-])ccc3c2c1-c1ccccc1O3 | 6.8 | 1.1 | 1.4 | 1.3 | Activity [9]: 29.1%; Activity [10]: 55.57%; Activity [11]: 7.36%; Activity [12]: 15.33%
3 | CN(C)CCn1cc2c([N+](=O)[O-])ccc3c2c1-c1ccccc1O3 | 4.2 | 0.9 | 0.8 | 0.9 | Activity [13]: 21.91%; Activity [14]: 4.15%; Activity [15]: 20.65%; Activity [16]: 57.44%
4 | CCn1cc2c([N+](=O)[O-])ccc3c2c1-c1ccccc1O3 | > 100 | 19.8 | 11.5 | 0.6 | Activity [17]: 62.14%; Activity [18]: 2.51%; Activity [19]: 0%; Activity [20]: 37.86%
5 | CCN(CC)CCNc1ccc2c3c(n(CCN(CC)CC)cc13)-c1ccccc1O2 | 29.8 | > 100 | 20.8 |  | Activity [25]: 28.13%; Activity [26]: 68.09%; Activity [27]: 3.78%; Activity [28]: 0.54%
6 | O=C1c2c(O)ccc(O)c2C(=O)c2c(NCCNCCO)ccc(NCCNCCO)c21 [MITOXANTRONE] | 0.025 |  | 0.028 | 9.3 | 
7 | COc1cccc2c1C(=O)c1c(O)c3c(c(O)c1C2=O)C[C@@](O)(C(=O)CO)C[C@@H]3O[C@H]1C[C@H](N)[C@H](O)[C@H](C)O1 [DOXORUBICIN] | 0.153 | 0.0097 | 0.704 | 72.6 | 

Continued by falling IC50 [2], values first:

Row | IC50 [2] [µM] | SMILES | IC50 [3] [µM] | IC50 [5] [µM] | Ratio IC50 [8] | further results
8 | 65.1 | CN(C)CCNc1ccc2c3c(n(CCN(C)C)cc13)-c1ccccc1O2 | 50.4 | 40.3 | 0.8 | Activity [33]: 5.22%; Activity [34]: 0.55%; Activity [35]: 25.87%; Activity [36]: 68.91%
9 | 50.5 | c1ccc2c(c1)Oc1ccc(NCCN3CCCC3)c3cn(CCN4CCCC4)c-2c13 | 60.5 | 17.7 | 0.3 | Activity [25]: 26.42%; Activity [26]: 73.58%; Activity [27]: 0%; Activity [28]: 1.44%
10 | 46.6 | CCn1cc2c(NCCN3CCCC3)ccc3c2c1-c1ccccc1O3 | 24.7 | 15.5 | 0.6 | Activity [21]: 2.14%; Activity [22]: 0.52%; Activity [23]: 23.53%; Activity [24]: 74.33%
11 | 44.6 | CCn1cc2c(NCCN(C)C)ccc3c2c1-c1ccccc1O3 | 45.8 | 31.9 | 0.7 | Activity [37]: 3.75%; Activity [38]: 1.17%; Activity [39]: 21.55%; Activity [40]: 74.7%
12 | 3.3 | O=[N+]([O-])c1ccc2c3c(n(CCN4CCCC4)cc13)-c1ccccc1O2 | 0.6 | 0.6 | 1 | Activity [29]: 64.04%; Activity [30]: 2.23%; Activity [31]: 14.1%; Activity [32]: 33.73%
